For orientation: melting point means the temperature, or range, at which the solid turns liquid. As a reminder, the IC50 is the concentration that gives 50% inhibition.

Each structure is given as a SMILES string. Like-named read-outs stand apart in the source and are kept apart here.

These results are taken from US20020103141A1, “Antiangiogenic combination therapy for the treatment of cancer” (priority 1998, published 2002).

For data set [1] the following is noted: cited from earlier work.
In the next data set the target is COX-1 (UniProt P23219). The experiment in a line: Fast assay for COX-1 activity (PGE2 ELISA). As to conditions: read-out: COX-1* IC50, recombinant COX-1, PGE2 ELISA, 10 min pre-incubation at 25° C. On the technique in general: An ELISA detects its analyte on a solid surface through an enzyme-linked reagent.
The target of another data set is T1, COX-2 (UniProt P35354).
T1 sequence (P35354 1-604): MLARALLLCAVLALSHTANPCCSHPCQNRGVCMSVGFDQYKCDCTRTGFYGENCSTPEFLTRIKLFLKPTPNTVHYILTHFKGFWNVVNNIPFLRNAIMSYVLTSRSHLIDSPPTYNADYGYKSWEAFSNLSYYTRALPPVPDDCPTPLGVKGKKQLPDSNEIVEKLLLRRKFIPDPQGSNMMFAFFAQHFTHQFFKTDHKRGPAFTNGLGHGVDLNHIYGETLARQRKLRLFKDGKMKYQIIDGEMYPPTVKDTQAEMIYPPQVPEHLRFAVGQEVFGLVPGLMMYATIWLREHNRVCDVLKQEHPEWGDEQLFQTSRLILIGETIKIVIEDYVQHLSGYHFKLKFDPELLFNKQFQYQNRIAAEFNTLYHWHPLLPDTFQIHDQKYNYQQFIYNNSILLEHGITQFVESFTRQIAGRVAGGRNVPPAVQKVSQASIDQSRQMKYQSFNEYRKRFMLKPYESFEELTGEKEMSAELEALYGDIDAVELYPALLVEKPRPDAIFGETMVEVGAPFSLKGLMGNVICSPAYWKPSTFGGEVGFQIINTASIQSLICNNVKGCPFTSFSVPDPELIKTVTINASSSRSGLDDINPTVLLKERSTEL
As to the kind of experiment: Fast assay for COX-2 activity (PGE2 ELISA). As to conditions: read-out: COX-2* IC50, recombinant COX-2, PGE2 ELISA, 10 min pre-incubation at 25° C.

Protocol for COX-1: (§1) The homogenate was centrifuged at 10,000×G for 30 minutes, and the resultant supernatant was stored at −80° C. before being assayed for COX activity.
(§2) COX activity was assayed as PGE2 formed/μg protein/time using an ELISA to detect the prostaglandin released. CHAPS-solubilized insect cell membranes containing the appropriate COX enzyme were incubated in a potassium phosphate buffer (0.05 M Potassium phosphate, pH 7.5, 2 μM phenol, 1 μM heme, 300 μM epinephrine) with the addition of 20 μl of 100 μM arachidonic acid (10 μM). […] The PGE2 formed was measured by standard ELISA technology (Cayman Chemical).
Protocol for COX-2: as §1, §2

Consider `CC[C@@]1(O)C(=O)OCc2c1cc1n(c2=O)Cc2cc3c(N)cccc3nc2-1` [9-aminocamptothecin, 1H-Pyrano[3′,4′:6,7]indolizino[1,2-b]quinoline-3,14(4H,12H)-dione, 10-amino-4-ethyl-4-hydroxy-, (S)-], for which the Maximum tolerated dose entry in data set [1] (in vivo) is on record as “dose = 45 mug/square metre/hr”.
With `Cc1cc2c(cc1Cl)C=C(C(=O)O)C(C(F)(F)F)S2` (stereo not shown) [Example 23, 6-Chloro-7-methyl-2-(trifluoromethyl)-2H-1-benzothiopyran-3-carboxylic acid], the melting point fell in the range of 240.5 to 241.7 °C. Moreover, on COX-1, the IC50 was 365 µM.
Regarding `O=C(O)C1=Cc2cc(C(F)F)ccc2OC1C(F)(F)F` (stereo not shown) [Example 8, 6-(Difluoromethyl)-2-(trifluoromethyl)-2H-1-benzopyran-3-carboxylic acid], the melting point lay within 134.7 to 136.2 °C.
`O=C(O)C1=Cc2cc(Br)ccc2NC1C(F)(F)F` (stereo not shown) [Example 22, 6-Bromo-1,2-dihydro-2-(trifluoromethyl)-3-quinolinecarboxylic acid]: the melting point lay in the range of 185 to 186 °C. Also, the IC50 at COX-2 was 0.4 µM. Moreover, the IC50 on COX-1 was above 100 µM.
With `O=C(O)C1=Cc2cc(Cl)ccc2N[C@@H]1C(F)(F)F` [Example 13, (S)-6-chloro-1,2-dihydro-2-(trifluoromethyl)-3-quinolinecarboxylic acid], the melting point fell in the range of 173 to 176 °C. Moreover, the IC50 on COX-2 turned out to be 0.2 µM. Also, the IC50 on COX-1 was above 100 µM.
`O=C(O)C1=Cc2c(cc(Cl)c(Cl)c2Cl)OC1C(F)(F)F` (stereo not shown) [Example 19, 5,6,7-Trichloro-2-(trifluoromethyl)-2H-1-benzopyran-3-carboxylic acid]: the melting point lay in the range of 236.2 to 239.3 °C.
The compound `O=C(O)C1=Cc2cc(Cl)c(Cl)cc2OC1C(F)(F)F` (stereo not shown) [Example 16, 6,7-Dichloro-2-trifluoromethyl-2H-1-benzopyran-3-carboxylic acid] registered a melting point of 196.1 to 198.3 °C. Further, the IC50 at COX-1 came out at 94.6 µM.
Regarding `O=C1c2c(c3c4ccc(O)cc4n([C@@H]4O[C@H](CO)[C@@H](O)[C@H](O)[C@H]4O)c3c3[nH]c4cc(O)ccc4c23)C(=O)N1NC(CO)CO` [J 107088, 5H-Indolo[2,3-a]pyrrolo[3,4-c]carbazole-5,7(6H)-dione, 12-β-D-glucopyranosyl-12,13-dihydro-2,10-dihydroxy-6-[[2-hydroxy-1-(hydroxymethyl)ethyl]amino]-], the Maximum tolerated dose in data set [1] (in vivo) was 7.5 mg/m2.
With `O=C(O)C1=Cc2cc(Cl)c(Cl)c(Cl)c2OC1C(F)(F)F` (stereo not shown) [Example 20, 6,7,8-Trichloro-2-(trifluoromethyl)-2H-1-benzopyran-3-carboxylic acid], the melting point was in the range of 222 to 225.3 °C.
`CC[C@@]1(O)C(=O)OCc2c1cc1n(c2=O)Cc2cc3c([N+](=O)[O-])cccc3nc2-1` [rubitecan, 1H-Pyrano[3′,4′:6,7]indolizino[1,2-b]quinoline-3,14(4H,12H)-dione, -4-ethyl-4-hydroxy-10-nitro-, (S)-]: in data set [1] (% of patients), the “grade 4 anemia” value was 29% of and the “grade 4 thrombocytopenia” value is recorded as “penia in 18%”. For the same compound, in data set [1] (occurred at each dose level), the “chemical cystitis, Grade 2 or higher” value is “(25%),”; the “diarrhea, Grade 2 or higher” value is recorded as “(32%),”; the “nausea and vomiting, Grade 2 or higher” value was “(54%),”; the “neutropenic sepsis, Grade 2 or higher” value was “sepsis (21%),”. Further, in data set [1] (occurred at each dose level), the “weight loss, Grade 2 or higher” value is on record as “loss (18%)”. In addition, in data set [1] (over five consecutive days repeated every week), the Maximum tolerated dose is listed as 1.5 mg/ mg/m2/day.
For the compound `O=Cc1ccc2c(c1)C=C(C(=O)O)C(C(F)(F)F)O2` (stereo not shown) [Example 7, 6-Formyl-2-(trifluoromethyl)-2H-1-benzopyran-3-carboxylic acid], the melting point was 211.3 to 215.7 °C. Further, the IC50 on COX-1 was above 500 µM.
`CC(C)(C)c1ccc2c(c1)OC(C(F)(F)F)C(C(=O)O)=C2` (stereo not shown) [Example 15, 7-(1,1-Dimethylethyl)-2-trifluoromethyl-2H-1-benzopyran-3-carboxylic acid] displayed a melting point of 165.6 to 166.8 °C. Further, the IC50 at COX-2 was 3.6 µM. For the same compound, the IC50 at COX-1 stood at 57 µM.
Consider `O=C(O)C1=Cc2cc(Cl)cc(Cl)c2SC1C(F)(F)F` (stereo not shown) [Example 24, 6,8-Dichloro-2-trifluoromethyl-2H-1-benzothiopyran-3-carboxylic acid], for which the IC50 at COX-1 is 0.2 µM.
Turning to `O=C(O)C1=Cc2cc(Cl)ccc2OC1C(F)(F)F` (stereo not shown) [Example 1, 6-Chloro-2-trifluoromethyl-2H-1-benzopyran-3-carboxylic acid], the concentration for half-maximal inhibition (IC50) came to 0.7 µM at COX-2 and 43 µM at COX-1.
`CC[C@@]1(O)C(=O)OCc2c1cc1n(c2=O)Cc2cc3c(CN(C)C)c(O)ccc3nc2-1` [Topotecan, 1H-Pyrano[3′,4′:6,7]indolizino[1,2-b]quinoline-3,14(4,H,12H)-dione, 10-[(dimethylamino)methyl]-4-ethyl-4,9-dihydroxy-, (S)-]: the Maximally tolerated dose entry in data set [1] (× 5 d every 3 to 4 wk) is given as “dose: 1.5 mg/m^2”.
`O=C(O)C1=Cc2cc(C(F)(F)F)ccc2OC1C(F)(F)F` (stereo not shown) [Example 18, 2,6-Bis(trifluoromethyl)-2H-1-benzopyran-3-carboxylic acid] returned a melting point of 143.5 to 145.2 °C.
With `CSc1ccc2c(c1)C=C(C(=O)O)C(C(F)(F)F)O2` (stereo not shown) [Example 2, 6-(Methylthio)-2-(trifluoromethyl)-2H-1-benzopyran-3-carboxylic acid], the melting point lay within 166.3 to 167.9 °C.
Consider `O=C(O)C1=Cc2cc(Cl)ccc2O[C@@H]1C(F)(F)F` [Example 2, (S)-6-Chloro-2-trifluoromethyl-2H-1-benzopyran-3-carboxylic acid], for which the melting point lay within 126.7 to 128.9 °C.
For the compound `O=C(O)C1=Cc2cc(OC(F)(F)F)ccc2OC1C(F)(F)F` (stereo not shown) [Example 5, 6-Trifluoromethoxy-2-trifluoromethyl-2H-1-benzopyran-3-carboxylic acid], the IC50 at COX-1 was determined as 18.8 µM.
Consider `Cc1c(Cl)cc2c(c1Cl)OC(C(F)(F)F)C(C(=O)O)=C2` (stereo not shown) [Example 9, 6,8-Dichloro-7-methyl-2-(trifluoromethyl)-2H-1-benzopyran-3-carboxylic acid], for which the melting point is 229.9 to 230.9 °C. Further, the IC50 at COX-2 was found to be 0.9 µM. The IC50 at COX-1 was found to be 1 µM.
`O=C(O)C1=Cc2c(ccc(Cl)c2Cl)OC1C(F)(F)F` (stereo not shown) [Example 17, 5,6-Dichloro-2-(trifluoromethyl)-2H-1-benzopyran-3-carboxylic acid]: the melting point lay within 211.5 to 213.5 °C.
On to `O=C(O)C1=Cc2cc(Cl)ccc2NC1C(F)(F)F` (stereo not shown) [Example 12, 6-Chloro-1,2-dihydro-2-(trifluoromethyl)-3-quinolinecarboxylic acid], for which the melting point is 187.8 to 188.8 °C. In addition, at COX-2, the IC50 is 0.6 µM. Moreover, at COX-1, the IC50 was above 500 µM.
`O=C(O)C1=Cc2cc(Cl)cc(Cl)c2NC1C(F)(F)F` (stereo not shown) [Example 14, 6,8-Dichloro-1,2-dihydro-2-(trifluoromethyl)-3-quinolinecarboxylic acid] showed a melting point of 223.4 to 225.7 °C. On COX-2, the IC50 is 0.2 µM. The IC50 on COX-1 worked out at 9.7 µM.
In turn, `O=C(O)C1=Cc2cc(I)ccc2NC1C(F)(F)F` (stereo not shown) [Example 21, 6-Iodo-1,2-dihydro-2-(trifluoromethyl)-3-quinolinecarboxylic acid] registered a melting point of 188 to 192 °C. Further, the IC50 on COX-2 is 0.8 µM. Besides, the IC50 on COX-1 is above 100 µM.
